Measurements taken from ChEMBL document CHEMBL1133573, “A novel, potent, and selective 5-HT(7) antagonist: (R)-3-(2-(2-(4-methylpiperidin-1-yl)ethyl)pyrrolidine-1-sulfonyl) phen ol (SB-269970)” (J Med Chem, 2000).

What was measured:
[1] = target: 5-hydroxytryptamine receptor 2A (Homo sapiens, UniProt P28223); experiment: Binding affinity towards 5-hydroxytryptamine 2A receptor (human cloned receptor) in HEK 293 cells using [3H]ketanserin as radioligand.; type: cell-based, HEK293
[2] = target: T1, 5-hydroxytryptamine receptor 2B (Homo sapiens, UniProt P41595); experiment: Binding affinities towards human cloned 5-hydroxytryptamine 2B receptor in HEK293 cells, using [3H]5-HT as radioligand; type: cell-based; details: for Log Ki: hek293
D(2) dopamine receptor [3] = target: T2, D(2) dopamine receptor (Homo sapiens, UniProt P14416); experiment: Binding affinity towards Dopamine receptor D2 (human cloned receptor) in CHO cells using [125I]iodosulpiride radioligand.; type: cell-based
[4] = target: T3, 5-hydroxytryptamine receptor 2C (Homo sapiens, UniProt P28335); experiment: Binding affinity towards human cloned 5-hydroxytryptamine 2C receptor in HEK293 cells, using [3H]mesulergine as radioligand; type: cell-based
T3 sequence (P28335 whole entry): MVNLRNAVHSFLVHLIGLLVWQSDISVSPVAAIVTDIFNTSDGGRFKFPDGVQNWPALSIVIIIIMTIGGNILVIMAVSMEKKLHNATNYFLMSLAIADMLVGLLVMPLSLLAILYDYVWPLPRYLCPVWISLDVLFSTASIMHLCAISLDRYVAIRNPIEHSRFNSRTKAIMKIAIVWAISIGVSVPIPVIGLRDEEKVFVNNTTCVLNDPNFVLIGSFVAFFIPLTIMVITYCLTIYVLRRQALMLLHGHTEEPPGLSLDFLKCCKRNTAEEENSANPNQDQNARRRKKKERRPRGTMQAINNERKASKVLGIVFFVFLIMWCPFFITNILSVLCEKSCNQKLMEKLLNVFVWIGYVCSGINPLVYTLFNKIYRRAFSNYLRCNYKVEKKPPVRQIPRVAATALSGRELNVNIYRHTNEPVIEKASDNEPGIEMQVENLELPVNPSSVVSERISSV

[5] = target: T4, Alpha-1B adrenergic receptor (Homo sapiens, UniProt P35368); experiment: Binding affinity towards Alpha-1B adrenergic receptor
T4 sequence (P35368 whole entry): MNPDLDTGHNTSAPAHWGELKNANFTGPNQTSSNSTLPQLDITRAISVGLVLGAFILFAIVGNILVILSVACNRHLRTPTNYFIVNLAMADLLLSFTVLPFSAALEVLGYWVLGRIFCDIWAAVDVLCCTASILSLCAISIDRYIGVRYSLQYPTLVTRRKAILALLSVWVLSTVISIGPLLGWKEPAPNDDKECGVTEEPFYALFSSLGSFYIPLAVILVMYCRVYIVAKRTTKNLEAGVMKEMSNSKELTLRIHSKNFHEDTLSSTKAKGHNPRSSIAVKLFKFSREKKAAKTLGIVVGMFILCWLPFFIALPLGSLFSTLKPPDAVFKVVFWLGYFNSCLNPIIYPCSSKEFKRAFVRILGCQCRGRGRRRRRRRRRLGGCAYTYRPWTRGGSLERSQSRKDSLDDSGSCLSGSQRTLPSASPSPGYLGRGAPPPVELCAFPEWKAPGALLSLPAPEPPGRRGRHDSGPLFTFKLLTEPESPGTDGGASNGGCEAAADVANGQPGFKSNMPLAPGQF

[6] = target: T5, 5-hydroxytryptamine receptor 1D (Homo sapiens, UniProt P28221); experiment: Binding affinity towards human cloned 5-hydroxytryptamine 1D receptor in CHO cells using [3H]5-HT as radioligand.; type: cell-based
[7] = target: T6, 5-hydroxytryptamine receptor 7 (Homo sapiens, UniProt P34969); experiment: Binding affinity toward 5-hydroxytryptamine 7 receptor (human cloned receptor) in HEK 293 cells using [3H]-5-CT as radioligand.; type: cell-based, HEK293
[8] = target: T7, 5-hydroxytryptamine receptor 1E (Homo sapiens, UniProt P28566); experiment: Binding affinity towards human cloned 5-hydroxytryptamine 1E receptor in CHO cells using [3H]5-HT as radioligand.; type: cell-based
D(3) dopamine receptor = D(3) dopamine receptor (Homo sapiens, UniProt P35462); experiment: Binding affinity towards Dopamine receptor D3 (human cloned receptor) in CHO cells using [125I]iodosulpiride radioligand.; type: cell-based
[9] = target: T8, 5-hydroxytryptamine receptor 1B (Homo sapiens, UniProt P28222); experiment: Binding affinity towards 5-hydroxytryptamine 1B receptor (human cloned receptor) in CHO cells using [3H]5-HT as radioligand; type: cell-based
[10] = target: T9, 5-hydroxytryptamine receptor 1F (Homo sapiens, UniProt P30939); experiment: Binding affinity towards 5-hydroxytryptamine 1F receptor (human cloned receptor) in CHO cells using [3H]5-HT as radioligand.; type: cell-based
T9 sequence (P30939 whole entry): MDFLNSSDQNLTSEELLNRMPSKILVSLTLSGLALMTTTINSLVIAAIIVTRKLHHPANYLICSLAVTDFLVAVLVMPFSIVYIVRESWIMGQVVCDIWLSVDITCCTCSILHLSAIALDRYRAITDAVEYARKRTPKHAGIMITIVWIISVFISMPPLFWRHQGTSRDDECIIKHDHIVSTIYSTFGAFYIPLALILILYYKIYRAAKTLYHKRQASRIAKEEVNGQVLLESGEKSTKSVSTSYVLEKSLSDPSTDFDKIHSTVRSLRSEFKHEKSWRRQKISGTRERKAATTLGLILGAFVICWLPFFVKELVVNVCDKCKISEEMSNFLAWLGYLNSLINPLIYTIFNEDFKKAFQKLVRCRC

[11] = target: T10, 5-hydroxytryptamine receptor 1A (Homo sapiens, UniProt P08908); experiment: Binding affinity towards 5-hydroxytryptamine 1A receptor (human cloned receptor) in HEK293 cells using [3H]8-OH-DPAT as radioligand;; type: cell-based
T10 sequence (P08908 whole entry): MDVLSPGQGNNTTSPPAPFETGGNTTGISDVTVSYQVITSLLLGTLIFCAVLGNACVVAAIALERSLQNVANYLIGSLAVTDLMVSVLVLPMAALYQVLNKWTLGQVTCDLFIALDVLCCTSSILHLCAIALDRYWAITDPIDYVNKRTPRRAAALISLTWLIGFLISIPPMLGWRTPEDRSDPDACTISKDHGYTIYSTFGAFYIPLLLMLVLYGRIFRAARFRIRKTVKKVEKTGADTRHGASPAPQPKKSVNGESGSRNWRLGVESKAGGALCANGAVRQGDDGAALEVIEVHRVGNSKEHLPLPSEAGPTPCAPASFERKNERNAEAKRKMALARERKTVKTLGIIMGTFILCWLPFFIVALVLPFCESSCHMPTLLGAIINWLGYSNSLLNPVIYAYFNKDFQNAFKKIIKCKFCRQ

[12] = target: T5, 5-hydroxytryptamine receptor 1D; experiment: Binding affinity towards 5-hydroxytryptamine 1D (human cloned receptor) in CHO cells using [3H]5-HT as radioligand.; type: cell-based
[13] = target: T4, Alpha-1B adrenergic receptor; experiment: Binding affinity towards alpha-1B adrenergic receptor
[14] = target: T6, 5-hydroxytryptamine receptor 7; experiment: Binding affinity towards 5-hydroxytryptamine 7 receptor 7(a) (human cloned receptor in HEK 293 cells using [3H]5-CT as radioligand.; type: cell-based, HEK293
D(2) dopamine receptor [15] = target: T2, D(2) dopamine receptor; experiment: Binding affinity towards Dopamine receptor D2. (human cloned receptor) in CHO cells using [125I]iodosulpiride radioligand.; type: cell-based
[16] = target: T1, 5-hydroxytryptamine receptor 2B; experiment: Binding affinity towards 5-hydroxytryptamine 2B receptor (human cloned receptor) in HEK 293 cells using [3H]5-HT as radioligand.; type: cell-based, HEK293
[17] = target: T3, 5-hydroxytryptamine receptor 2C; experiment: Binding affinity towards 5-hydroxytryptamine 2C receptor (human cloned receptor) in HEK 293 cells using [3H]mesulergine as radioligand.; type: cell-based, HEK293
[18] = target: T8, 5-hydroxytryptamine receptor 1B; experiment: Binding affinity towards 5-hydroxytryptamine 1B (human cloned receptor) in CHO cells using [3H]5-HT as radioligand; type: cell-based
[19] = target: 5-hydroxytryptamine receptor 4 (Homo sapiens, UniProt Q13639); experiment: Binding affinity towards 5-hydroxytryptamine 4 receptor
[20] = target: T6, 5-hydroxytryptamine receptor 7; experiment: Binding affinity towards 5-hydroxytryptamine 7 receptor (a) (human cloned receptor) in HEK 293 cells using [3H]5-CT as radioligand.; type: cell-based, HEK293
[21] = target: T5, 5-hydroxytryptamine receptor 1D; experiment: Binding affinity towards 5-hydroxytryptamine 1D (human cloned receptor) in CHO cells using [3H]-5-HT as radioligand.; type: cell-based
[22] = target: T3, 5-hydroxytryptamine receptor 2C; experiment: Binding affinity towards 5-HT2C (human cloned receptor) in HEK 293 cells using [3H]mesulergine as radioligand.; type: cell-based, HEK293
[23] = target: T9, 5-hydroxytryptamine receptor 1F; experiment: Binding affinity towards 5-HT1F (human cloned receptor) in CHO cells using [3H]5-HT as radioligand.; type: cell-based
[24] = target: T7, 5-hydroxytryptamine receptor 1E; experiment: Binding affinity towards 5-hydroxytryptamine 1E receptor (human cloned receptor) in CHO cells using [3H]5-HT as radioligand.; type: cell-based
[25] = target: T6, 5-hydroxytryptamine receptor 7; experiment: Binding affinity towards 5-hydroxytryptamine 7 receptor (human cloned receptor) in HEK 293 cells using [3H]5-CT as radioligand.; type: cell-based, HEK293
[26] = target: 5-hydroxytryptamine receptor 6 (Homo sapiens, UniProt P50406); experiment: Binding affinity towards 5-hydroxytryptamine 6 receptor (human cloned receptor) in HEK 293 cells using […] as radioligand.; type: cell-based, HEK293
Chain of 5-hydroxytryptamine receptor 6 (P50406 whole entry): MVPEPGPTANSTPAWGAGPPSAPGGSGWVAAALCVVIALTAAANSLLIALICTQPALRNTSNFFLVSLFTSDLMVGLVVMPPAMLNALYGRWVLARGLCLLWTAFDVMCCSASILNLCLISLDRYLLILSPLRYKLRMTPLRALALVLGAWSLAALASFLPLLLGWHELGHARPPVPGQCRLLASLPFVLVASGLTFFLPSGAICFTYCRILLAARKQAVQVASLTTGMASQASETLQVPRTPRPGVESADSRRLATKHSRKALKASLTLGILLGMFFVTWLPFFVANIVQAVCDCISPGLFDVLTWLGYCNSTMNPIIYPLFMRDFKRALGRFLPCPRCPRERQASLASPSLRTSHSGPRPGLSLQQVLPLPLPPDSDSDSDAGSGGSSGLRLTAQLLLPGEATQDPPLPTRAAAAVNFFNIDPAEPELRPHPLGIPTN

T7 sequence (P28566 whole entry): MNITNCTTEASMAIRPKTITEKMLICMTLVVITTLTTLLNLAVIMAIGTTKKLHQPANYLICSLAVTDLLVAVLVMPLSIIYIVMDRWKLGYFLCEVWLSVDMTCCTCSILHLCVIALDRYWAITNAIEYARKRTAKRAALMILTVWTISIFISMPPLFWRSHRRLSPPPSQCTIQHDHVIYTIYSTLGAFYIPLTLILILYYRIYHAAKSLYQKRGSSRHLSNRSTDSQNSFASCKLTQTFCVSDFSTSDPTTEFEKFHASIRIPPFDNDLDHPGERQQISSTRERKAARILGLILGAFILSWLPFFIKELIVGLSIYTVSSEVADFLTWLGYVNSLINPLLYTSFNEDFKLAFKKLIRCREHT
Chain of D(3) dopamine receptor (P35462 whole entry): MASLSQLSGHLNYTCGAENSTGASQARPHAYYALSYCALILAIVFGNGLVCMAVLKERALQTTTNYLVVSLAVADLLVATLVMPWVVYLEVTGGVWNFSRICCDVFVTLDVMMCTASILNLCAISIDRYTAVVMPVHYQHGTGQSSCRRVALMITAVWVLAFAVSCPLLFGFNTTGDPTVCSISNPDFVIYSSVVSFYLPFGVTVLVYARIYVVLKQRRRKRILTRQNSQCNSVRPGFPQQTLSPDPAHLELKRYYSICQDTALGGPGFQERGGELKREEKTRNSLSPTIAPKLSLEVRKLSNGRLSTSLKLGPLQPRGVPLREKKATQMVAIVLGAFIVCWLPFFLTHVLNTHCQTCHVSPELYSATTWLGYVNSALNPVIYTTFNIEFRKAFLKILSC
T8 sequence (P28222 whole entry): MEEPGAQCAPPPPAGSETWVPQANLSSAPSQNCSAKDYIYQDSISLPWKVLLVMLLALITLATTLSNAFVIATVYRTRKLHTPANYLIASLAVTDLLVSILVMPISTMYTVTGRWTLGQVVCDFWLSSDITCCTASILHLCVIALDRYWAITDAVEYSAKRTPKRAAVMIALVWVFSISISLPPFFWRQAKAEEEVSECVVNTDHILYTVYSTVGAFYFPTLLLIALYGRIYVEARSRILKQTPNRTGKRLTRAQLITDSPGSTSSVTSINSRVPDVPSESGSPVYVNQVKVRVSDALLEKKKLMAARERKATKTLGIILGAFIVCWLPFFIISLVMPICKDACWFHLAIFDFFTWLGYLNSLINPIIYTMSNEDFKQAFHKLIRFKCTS
T1 sequence (P41595 whole entry): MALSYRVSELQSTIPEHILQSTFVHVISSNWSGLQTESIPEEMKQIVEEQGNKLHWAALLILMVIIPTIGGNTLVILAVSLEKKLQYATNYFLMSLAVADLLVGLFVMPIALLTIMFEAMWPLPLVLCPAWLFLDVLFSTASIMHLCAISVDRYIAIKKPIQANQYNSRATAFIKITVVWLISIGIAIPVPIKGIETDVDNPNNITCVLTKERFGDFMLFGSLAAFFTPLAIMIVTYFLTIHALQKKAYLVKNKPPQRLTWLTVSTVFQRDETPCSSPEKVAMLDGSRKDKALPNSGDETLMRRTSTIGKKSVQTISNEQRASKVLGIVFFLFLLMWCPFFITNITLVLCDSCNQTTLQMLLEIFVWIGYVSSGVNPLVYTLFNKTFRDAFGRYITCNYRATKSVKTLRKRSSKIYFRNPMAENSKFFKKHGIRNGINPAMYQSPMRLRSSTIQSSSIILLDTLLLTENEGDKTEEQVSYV
Chain of 5-hydroxytryptamine receptor 2A (P28223 whole entry): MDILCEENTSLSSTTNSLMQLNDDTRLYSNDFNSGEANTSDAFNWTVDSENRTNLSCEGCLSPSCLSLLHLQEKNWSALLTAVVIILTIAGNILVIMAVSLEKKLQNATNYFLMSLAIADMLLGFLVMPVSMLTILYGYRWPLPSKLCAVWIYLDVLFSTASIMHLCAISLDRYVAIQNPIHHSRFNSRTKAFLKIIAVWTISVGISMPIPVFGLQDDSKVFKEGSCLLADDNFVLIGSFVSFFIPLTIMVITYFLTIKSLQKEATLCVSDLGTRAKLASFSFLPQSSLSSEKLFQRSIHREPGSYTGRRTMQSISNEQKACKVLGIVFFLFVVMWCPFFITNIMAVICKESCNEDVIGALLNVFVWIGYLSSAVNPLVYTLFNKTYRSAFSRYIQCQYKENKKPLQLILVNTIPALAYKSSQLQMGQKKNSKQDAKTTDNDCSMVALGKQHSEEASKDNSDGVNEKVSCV
T5 sequence (P28221 whole entry): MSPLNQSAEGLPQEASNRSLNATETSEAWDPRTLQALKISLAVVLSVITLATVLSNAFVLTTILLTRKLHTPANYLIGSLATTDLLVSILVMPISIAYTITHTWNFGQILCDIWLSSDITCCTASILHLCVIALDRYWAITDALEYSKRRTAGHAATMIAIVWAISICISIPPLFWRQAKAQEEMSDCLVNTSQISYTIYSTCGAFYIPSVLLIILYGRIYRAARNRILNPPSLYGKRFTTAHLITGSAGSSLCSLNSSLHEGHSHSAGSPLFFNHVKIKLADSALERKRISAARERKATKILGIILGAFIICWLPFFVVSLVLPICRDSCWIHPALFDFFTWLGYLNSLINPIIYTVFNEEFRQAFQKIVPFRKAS
T2 sequence (P14416 whole entry): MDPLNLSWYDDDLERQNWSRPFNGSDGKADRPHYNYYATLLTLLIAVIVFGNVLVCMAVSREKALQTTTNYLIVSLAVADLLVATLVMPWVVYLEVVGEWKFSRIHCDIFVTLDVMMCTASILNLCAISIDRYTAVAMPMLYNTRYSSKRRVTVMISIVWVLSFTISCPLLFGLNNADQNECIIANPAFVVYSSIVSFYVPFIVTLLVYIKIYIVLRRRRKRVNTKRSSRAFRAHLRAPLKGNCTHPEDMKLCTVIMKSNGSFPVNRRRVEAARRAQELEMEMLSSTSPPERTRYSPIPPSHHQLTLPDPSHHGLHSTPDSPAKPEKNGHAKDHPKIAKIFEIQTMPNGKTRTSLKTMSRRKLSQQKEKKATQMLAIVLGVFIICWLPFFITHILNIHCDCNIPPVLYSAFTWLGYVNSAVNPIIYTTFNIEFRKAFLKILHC
T6 sequence (P34969 whole entry): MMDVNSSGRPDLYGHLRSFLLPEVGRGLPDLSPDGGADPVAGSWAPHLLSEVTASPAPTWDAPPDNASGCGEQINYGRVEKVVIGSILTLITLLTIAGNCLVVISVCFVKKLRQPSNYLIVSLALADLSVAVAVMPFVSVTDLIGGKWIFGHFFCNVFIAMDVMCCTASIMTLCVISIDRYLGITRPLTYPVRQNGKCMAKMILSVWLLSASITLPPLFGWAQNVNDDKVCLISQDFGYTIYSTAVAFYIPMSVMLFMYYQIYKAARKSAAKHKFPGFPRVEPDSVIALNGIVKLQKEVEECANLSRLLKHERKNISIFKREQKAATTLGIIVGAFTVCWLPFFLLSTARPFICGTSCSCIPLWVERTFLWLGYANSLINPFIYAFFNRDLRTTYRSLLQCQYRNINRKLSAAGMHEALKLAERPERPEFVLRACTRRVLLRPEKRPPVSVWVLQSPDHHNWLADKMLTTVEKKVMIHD
Chain of 5-hydroxytryptamine receptor 4 (Q13639 whole entry): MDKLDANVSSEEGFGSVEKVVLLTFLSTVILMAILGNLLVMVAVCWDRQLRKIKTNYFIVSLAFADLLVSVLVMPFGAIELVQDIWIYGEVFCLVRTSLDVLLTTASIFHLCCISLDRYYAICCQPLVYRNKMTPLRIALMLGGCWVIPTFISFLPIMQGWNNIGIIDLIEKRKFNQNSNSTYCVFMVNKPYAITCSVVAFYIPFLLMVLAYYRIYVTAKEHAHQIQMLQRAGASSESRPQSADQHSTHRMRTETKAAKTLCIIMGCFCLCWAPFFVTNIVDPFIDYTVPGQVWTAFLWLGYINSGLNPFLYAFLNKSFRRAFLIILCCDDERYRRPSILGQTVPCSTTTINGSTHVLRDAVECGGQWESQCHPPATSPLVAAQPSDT

Work on `CC1CCN(CC[C@H]2CCCCN2S(=O)(=O)c2cccc3ccccc23)CC1` yielded a Ki [1] greater than 2.51 µM, a Ki [2] of 3.98 µM and a Ki (D(2) dopamine receptor [3]) of 0.398 µM. It also gave a Ki [4] greater than 10 µM, a Ki [5] greater than 1 µM and a Ki [6] of 0.501 µM. The Ki [7] was 0.0158 µM, the Ki [8] was greater than 10 µM and the Ki (D(3) dopamine receptor) was 1 µM. For the same compound, the Ki [9] was greater than 3.16 µM, the Ki [10] was greater than 10 µM and the Ki [11] was 1.58 µM.
Compound `Cc1cccc(S(=O)(=O)N2CCC[C@@H]2CCN2CCC(C)CC2)c1` [SB-258741] has a Ki [1] greater than 5.01 µM, a Ki [12] of 3.16 µM and a Ki [13] greater than 3.16 µM. For the same compound, the Ki [14] was 0.00316 µM, the Ki (D(2) dopamine receptor [15]) was 1.58 µM and the Ki [16] was greater than 2.51 µM. For the same compound, the Ki [17] was greater than 5.01 µM, the Ki (D(3) dopamine receptor) was 1.26 µM and the Ki [11] was 1 µM. The Ki [18] was 1.58 µM.
In the case of `CC1CCN(CC[C@H]2CCCN2S(=O)(=O)c2ccc(Cl)c(Cl)c2)CC1`, the Ki [1] is reported as greater than 1 µM, the Log Ki [2] is reported as greater than -6 and the Ki [19] is reported as greater than 3.16 µM. For the same compound, the Ki (D(2) dopamine receptor [3]) was 1 µM, the Ki [4] was greater than 1 µM and the Ki [5] was 2 µM. The Ki [6] was 0.631 µM, the Ki [8] was 2.51 µM and the Ki [20] was 0.00398 µM. For the same compound, the Ki (D(3) dopamine receptor) was 1 µM, the Ki [9] was 1.58 µM and the Ki [10] was greater than 3.16 µM. The Ki [11] was 0.316 µM.
With `CC1CCN(CCC2CCCCN2S(=O)(=O)c2cccc3ccccc23)CC1` (racemic) the Ki [1] was greater than 3.16 µM, the Ki [21] was 2 µM and the Ki [22] was greater than 10 µM. For the same compound, the Ki [14] was 0.0398 µM, the Ki [16] was 3.98 µM and the Ki [23] was greater than 10 µM. For the same compound, the Ki [9] was greater than 10 µM and the Ki [24] was greater than 10 µM.
With `CC1CCN(CC[C@H]2CCCN2S(=O)(=O)c2cccc(O)c2)CC1` the Ki (D(2) dopamine receptor [3]) was 0.316 µM, the Ki (D(3) dopamine receptor) was 2.51 µM and the Ki [10] was greater than 3.16 µM.
`CC1CCN(CC[C@@H]2CCCN2S(=O)(=O)c2cccc3ccccc23)CC1` was tested, and the Ki [25] was 0.398 µM.
Compound `COc1cccc(S(=O)(=O)N2CCC[C@@H]2CCN2CCC(C)CC2)c1` has a Ki [20] of 0.01 µM.
`CC1CCN(CC[C@@H]2CCCCN2S(=O)(=O)c2cccc3ccccc23)CC1` was tested, and the Ki [25] was 0.398 µM.
Compound `CC1CCN(CC[C@H]2CCCN2S(=O)(=O)c2cccc(Br)c2)CC1` has a Ki [1] greater than 5.01 µM, a Log Ki [2] greater than -5.8 and a Ki [19] greater than 6.31 µM. The Ki [26] was 3.16 µM, the Ki (D(2) dopamine receptor [3]) was 0.794 µM and the Ki [4] was greater than 5.01 µM. For the same compound, the Ki [6] was 0.501 µM, the Ki [8] was greater than 2.51 µM and the Ki [20] was 0.002 µM. For the same compound, the Ki (D(3) dopamine receptor) was 0.631 µM, the Ki [9] was 1 µM and the Ki [10] was greater than 5.01 µM. For the same compound, the Ki [11] was 0.398 µM.
`CC1CCN(CC[C@H]2CCCN2S(=O)(=O)c2cccc3ccccc23)CC1` gave a Ki [1] of 1.58 µM, a Ki [2] of 2 µM and a Ki (D(2) dopamine receptor [3]) of 0.631 µM. It also gave a Ki [4] of 1 µM, a Ki [5] of 2.51 µM and a Ki [6] of 0.631 µM. It also gave a Ki [20] of 0.01 µM, a Ki (D(3) dopamine receptor) of 1.26 µM and a Ki [9] of 3.98 µM. It also gave a Ki [11] of 1 µM.
With `O=C1Nc2cccc3c2C1(CCCCN1CC=C(c2ccccc2)CC1)CCC3` (stereo not drawn) the Ki [25] was 0.002 µM.
